Measured values published in US4005093A, “2-Naphthyl-lower-alkylamines” (Sterling Drug Inc., priority 1975, dated 1977).
Where a name gives a salt, the structure may show the parent alone.

Legend:
[1] = test system: adjuvant-induced arthritis; assay: modification of the inhibition of adjuvant-induced arthritis test (adjuvant arthritis, AA); assay type: in vivo; details: oral
Method: (§1) Anti-inflammatory activity was determined using (1) the inhibition of carrageenin-induced foot edema test essentially described by Van Arman et al., J. Pharmacol. Exptl. Therap. 150, 328 (1965) as modified by Winter et al., Proc. Soc. Exp. Biol. and Med. 111, 544 (1962) and (2) a modification of the inhibition of adjuvant-induced arthritis test described by Pierson, J. Chronic Diseases 16, 863 (1963) and Glenn et al., Am. J. Vet. Res. 26, 1180 (1965). […] Data so-obtained, given in terms of percent inhibition at a dose expressed in terms of […] (μM)/kg., are given below. All data were obtained on oral administration.

[2] = test system: carrageenin-induced foot edema; assay: inhibition of carrageenin-induced foot edema test (carrageenin edema, CE); assay type: in vivo; details: oral
Method: as §1

[3] = dose 0.16 millimoles (μM)/kg [sic], hydrochloride
[4] = dose 0.08 (millimoles (μM)/kg [sic]), hydrochloride
[5] = dose 0.324 millimoles (μM)/kg [sic], hydrochloride
[6] = dose 0.01 (millimoles (μM)/kg [sic])
[7] = dose 0.16 millimoles (μM)/kg [sic]
[8] = dose 0.08 (millimoles (μM)/kg [sic])
[9] = dose 0.324 millimoles (μM)/kg [sic]
[10] = dose 0.005 (printed millimoles (μM)/kg)
[11] = dose 0.02 (printed millimoles (μM)/kg)
[12] = dose 0.04 millimoles (μM)/kg [sic], hydrochloride

SMILES | AA (% Inhib./μM/kg.) [1, 3] | CE (% Inhib./μM/kg.) [2, 4] | CE (% Inhib./μM/kg.) [2, 5] | AA (% Inhib./μM/kg.) [1, 6] | CE (% Inhib./μM/kg.) [2, 8] | CE (% Inhib./μM/kg.) [2, 9] | also measured
COc1ccc2cc(C(C)CN3CCCCC3CC3CCCCC3)ccc2c1.Cl (stereo not drawn) [1 (γ-Isomer), 2-cyclohexylmethyl-1-[2-(6-methoxy-2-naphthyl)-2-methylethyl]-piperidine hydrochloride] | 86% | 24% | 45% | – | – | – | AA (% Inhib./μM/kg.) ([1]; dose 0.018 (printed millimoles (μM)/kg)): 2%; AA (% Inhib./μM/kg.) ([1]; dose 0.053 (printed millimoles (μM)/kg)): 49%
COc1ccc2cc(C(C)CN3CCCCC3C3CCCCC3)ccc2c1 (stereo not drawn) [Example 2, 2-cyclohexyl-1-[2-(6-methoxy-2-naphthyl)-2-methylethyl-]piperidine hydrochloride] | – | – | – | 17% | 35% | 69% | AA (% Inhib./μM/kg.) ([1]; dose 0.04 millimoles (μM)/kg [sic]): 31%; AA (% Inhib./μM/kg.) [1, 7]: 61%
CCN(CC)CCCC(C)NCC(C)c1ccc2cc(OC)ccc2c1 (stereo not drawn) [Example 6, N-[2-(6-methoxy-2-naphthyl)-2-methylethyl]-N-[5-(N',N'-diethyl-amino)-2-pentyl]amine] | – | – | – | – | 28% | 26% | AA (% Inhib./μM/kg.) [1, 7]: 73%
COc1ccc2cc(C(C)CN3CCC(CCC4CCCCC4)CC3)ccc2c1 (stereo not drawn) [Example 4, 4-(2-cyclohexylethyl)-1-[2-(6-methoxy-2-naphthyl)-2-methylethyl]-piperidine] | – | – | – | – | 22% | 38% | AA (% Inhib./μM/kg.) [1, 10]: 0%; AA (% Inhib./μM/kg.) [1, 11]: 0%; AA (% Inhib./μM/kg.) [1, 8]: 34%
COc1ccc2cc(C(C)CN3CCCCC3CC3CCCCC3)ccc2c1.Cl (stereo not drawn) [1 (β-Isomer), 2-cyclohexylmethyl-1-[2-(6-methoxy-2-naphthyl)-2-methylethyl]piperidine hydrochloride] | 89% | 16% | 47% | 0% | – | – | AA (% Inhib./μM/kg.) [1, 12]: 12%
COc1ccc2cc(CCN3CCCCC3CC3CCCCC3)ccc2c1 (stereo not drawn) [Example 5, 2-cyclohexylmethyl-1-[2-(6-methoxy-2-naphthyl)ethyl]piperidine] | – | – | – | – | 29% | 68% | AA (% Inhib./μM/kg.) [1, 9]: 55%
COc1ccc2cc(C(C)CN3CCCCC3CC3CCCCC3)ccc2c1.Cl (stereo not drawn) [1 (α-Isomer), 2-cyclohexylmethyl-1-[2-(6-methoxy-2-naphthyl)-2-methylethyl]piperidine hydrochloride] | 86% | 14% | 40% | 0% | – | – | AA (% Inhib./μM/kg.) [1, 12]: 8%
COc1ccc2cc(C(C)CN3CCCCC3CCC3CCCCC3)ccc2c1 (stereo not drawn) [Example 3, 2-(2-cyclohexylethyl)-1-[2-(6-methoxy-2-naphthyl)-2-methylethyl]-piperidinehydrochloride] | – | – | – | – | 66% | 52% | AA (% Inhib./μM/kg.) [1, 10]: 0%; AA (% Inhib./μM/kg.) [1, 11]: 40%; AA (% Inhib./μM/kg.) [1, 8]: 16%
